Experimental findings from patent US20250312352A1, “GLP-1R MODULATING COMPOUNDS” (Gilead Sciences, Inc., priority 2021, published 2025) are described below.

For orientation: EC50 means the concentration giving half of the maximal effect. High values mean lower potency in that assay, low ones higher potency in that assay.

The target of the test is T1, GLP-1R (Homo sapiens, UniProt P43220).
T1 construct: host or cells: CHO cells
T1 sequence (P43220 24-463): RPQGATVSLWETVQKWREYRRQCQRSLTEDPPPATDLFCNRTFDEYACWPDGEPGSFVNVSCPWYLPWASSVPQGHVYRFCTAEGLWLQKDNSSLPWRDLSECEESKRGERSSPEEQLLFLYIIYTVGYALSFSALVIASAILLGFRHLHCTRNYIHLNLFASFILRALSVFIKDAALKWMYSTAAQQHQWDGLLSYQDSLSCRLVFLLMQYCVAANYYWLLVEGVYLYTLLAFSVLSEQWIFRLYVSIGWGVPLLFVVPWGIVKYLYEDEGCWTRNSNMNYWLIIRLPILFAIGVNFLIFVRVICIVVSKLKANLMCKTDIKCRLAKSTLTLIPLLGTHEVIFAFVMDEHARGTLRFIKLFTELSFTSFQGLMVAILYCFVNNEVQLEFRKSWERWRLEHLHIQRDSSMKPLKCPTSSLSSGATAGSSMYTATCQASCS
The experiment in a line: GLP-1R activation cAMP assay (Assay 1 or Assay 2). Format: cell-based. Particulars: cAMP increase in CHO cells stably expressing GLP-1R; compounds run on one of the two cAMP assays. A digest of the protocol: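 CHO cells stably expressing human GLP-1R were incubated 1 h in HBSS/20 mM HEPES/0.1% BSA, then exposed to 10-point agonist dilutions for 30 min at 37 °C. cAMP increase was measured with an HTRF Gs dynamic kit; EC50 from sigmoidal fit of response versus log concentration.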
Background: Cyclic AMP is a second messenger, typically raised through Gs and lowered through Gi signalling.
As for `Cc1cc(Cc2nc3ccc(C(=O)O)cc3n2C[C@@H]2CCO2)c(Cl)cc1-c1ccc(F)c(OCc2ncc(C(F)(F)F)s2)n1` [Example 369, (S)-2-(2-chloro-4-(5-fluoro-6-((5-(trifluoromethyl)thiazol-2-yl)methoxy)pyridin-2-yl)-5-methylbenzyl)-1-(oxetan-2-ylmethyl)-1H-benzo[d]imidazole-6-carboxylic acid], the midpoint of the response, the EC50, lay at 683 pM.
For the compound `NC(=O)c1cnc(COc2cccc(-c3cc(F)c(Cc4nc5ccc(C(=O)O)cc5n4C[C@@H]4CCO4)cc3F)n2)cn1` [Example 209, (S)-2-(4-(6-((5-carbamoylpyrazin-2-yl)methoxy)pyridin-2-yl)-2,5-difluorobenzyl)-1-(oxetan-2-ylmethyl)-1H-benzo[d]imidazole-6-carboxylic acid], the midpoint of the response, the EC50, lay at 140 pM.
`COCCn1c(Cc2cc(F)c(-c3cccc(OCc4ccc(-c5cnn(Cc6cccnc6)c5)cc4F)n3)cc2F)nc2ccc(C(=O)O)cc21` [Example 237, 2-[[2,5-difluoro-4-[6-[[2-fluoro-4-[1-(3-pyridylmethyl)pyrazol-4-yl]phenyl]methoxy]-2-pyridyl]phenyl]methyl]-3-(2-methoxyethyl)benzimidazole-5-carboxylic acid] registered an EC50 of 3680 pM.
Regarding `COc1nnc(COc2nc(-c3cc(F)c(Cc4nc5ccc(C(=O)O)cc5n4[C@@H]4COCC4(C)C)c(F)c3F)ccc2F)s1` [Example 270, (S)-1-(4,4-dimethyltetrahydrofuran-3-yl)-2-(2,3,6-trifluoro-4-(5-fluoro-6-((5-methoxy-1,3,4-thiadiazol-2-yl)methoxy)pyridin-2-yl)benzyl)-1H-benzo[d]imidazole-6-carboxylic acid], a half-maximal effect (EC50) was put at 191 pM.
As for `CCOc1nc(Cl)c(COc2cccc(-c3cc(F)c(Cc4nc5ccc(C(=O)O)cc5n4C[C@@H]4CCO4)cc3F)n2)s1` [Example 353, (S)-2-(4-(6-((4-chloro-2-ethoxythiazol-5-yl)methoxy)pyridin-2-yl)-2,5-difluorobenzyl)-1-(oxetan-2-ylmethyl)-1H-benzo[d]imidazole-6-carboxylic acid], the EC50 was 188 pM.
With `COc1nnc(COc2nc(-c3ccc(Cc4nc5c(F)cc(C(=O)O)cc5n4[C@@H]4COCC4(C)C)c(F)c3)ccc2F)s1` [Example 429, (S)-1-(4,4-dimethyltetrahydrofuran-3-yl)-4-fluoro-2-(2-fluoro-4-(5-fluoro-6-((5-methoxy-1,3,4-thiadiazol-2-yl)methoxy)pyridin-2-yl)benzyl)-1H-benzo[d]imidazole-6-carboxylic acid], the EC50 amounted to 24 pM.
For the compound `O=C(O)c1ccc2nc(Cc3cc(F)c(-c4cccc(OCc5nnc(OCC(F)F)s5)n4)cc3F)n(C[C@@H]3CCO3)c2c1` [Example 352, (S)-2-(4-(6-((5-(2,2-difluoroethoxy)-1,3,4-thiadiazol-2-yl)methoxy)pyridin-2-yl)-2,5-difluorobenzyl)-1-(oxetan-2-ylmethyl)-1H-benzo[d]imidazole-6-carboxylic acid], a half-maximal effect (EC50) was put at 520 pM.
The compound `N#Cc1ccc(COc2cccc(-c3cc(F)c(Cc4nc5ccc(C(=O)O)cc5n4C[C@@H]4CCO4)cc3F)n2)s1` [Example 126, (S)-2-(4-(6-((5-cyanothiophen-2-yl)methoxy)pyridin-2-yl)-2,5-difluorobenzyl)-1-(oxetan-2-ylmethyl)-1H-benzo[d]imidazole-6-carboxylic acid] gave an EC50 of 310 pM.
Then `Cc1cc(Cc2nc3c(F)cc(C(=O)O)cc3n2[C@@H]2COCC2(C)C)c(F)cc1-c1ccc(F)c(OCc2ncc(C(F)(F)F)s2)n1` [Example 436, (S)-1-(4,4-dimethyltetrahydrofuran-3-yl)-4-fluoro-2-(2-fluoro-4-(5-fluoro-6-((5-(trifluoromethyl)thiazol-2-yl)methoxy)pyridin-2-yl)-5-methylbenzyl)-1H-benzo[d]imidazole-6-carboxylic acid], with 367 pM; and `Cn1cc(C#Cc2cnc(COc3cccc(-c4cc(F)c(Cc5nc6ccc(C(=O)O)cc6n5C[C@@H]5CCO5)cc4F)n3)c(Cl)c2)cn1` [Example 302, (S)-2-(4-(6-((3-chloro-5-((1-methyl-1H-pyrazol-4-yl)ethynyl)pyridin-2-yl)methoxy)pyridin-2-yl)-2,5-difluorobenzyl)-1-(oxetan-2-ylmethyl)-1H-benzo[d]imidazole-6-carboxylic acid], with 567 pM; and `Cn1cc(-c2cnc(COc3nc(-c4cc(F)c(Cc5nc6ccc(C(=O)O)cc6n5C[C@@H]5CCO5)cc4F)ccc3F)s2)cn1` [Example 99, (S)-2-(2,5-difluoro-4-(5-fluoro-6-((5-(1-methyl-1H-pyrazol-4-yl)thiazol-2-yl)methoxy)pyridin-2-yl)benzyl)-1-(oxetan-2-ylmethyl)-1H-benzo[d]imidazole-6-carboxylic acid], with 140 pM.
The figure for `COCCn1c(Cc2cc(F)c(-c3cccc(OCc4ccc(C#CC5CN(C(=O)OC)C5)cc4F)n3)cc2F)nc2ccc(C(=O)O)cc21` [Example 235, 2-[[2,5-difluoro-4-[6-[[2-fluoro-4-[2-(1-methoxycarbonylazetidin-3-yl)ethynyl]phenyl]methoxy]-2-pyridyl]phenyl]methyl]-3-(2-methoxyethyl)benzimidazole-5-carboxylic acid] is 1100 pM; for `COc1nnc(COc2cccc(-c3ccc(Cc4nc5ccc(C(=O)O)cc5n4[C@@H]4COCC4(C)C)cc3F)n2)s1` [Example 400, (S)-1-(4,4-dimethyltetrahydrofuran-3-yl)-2-(3-fluoro-4-(6-((5-methoxy-1,3,4-thiadiazol-2-yl)methoxy)pyridin-2-yl)benzyl)-1H-benzo[d]imidazole-6-carboxylic acid] it is 412 pM; for `CNC(=O)c1cc(Cl)c(COc2cccc(-c3cc(F)c(Cc4nc5c(F)cc(C(=O)O)cc5n4[C@@H]4COCC4(C)C)cc3F)n2)cn1` [Example 365, (S)-2-(4-(6-((4-chloro-6-(methylcarbamoyl)pyridin-3-yl)methoxy)pyridin-2-yl)-2,5-difluorobenzyl)-1-(4,4-dimethyltetrahydrofuran-3-yl)-4-fluoro-1H-benzo[d]imidazole-6-carboxylic acid] it is 164 pM.
In the case of `Cn1nccc1C#Cc1ccc(COc2cccc(-c3cc(F)c(Cc4nc5ccc(C(=O)O)cc5n4C[C@@H]4CCO4)cc3F)n2)c(F)c1` [Example 135, (S)-2-(2,5-difluoro-4-(6-((2-fluoro-4-((1-methyl-1H-pyrazol-5-yl)ethynyl)benzyl)oxy)pyridin-2-yl)benzyl)-1-(oxetan-2-ylmethyl)-1H-benzo[d]imidazole-6-carboxylic acid], the EC50 is 340 pM.
The compound `N#CCn1nccc1COc1cccc(-c2cc(F)c(Cc3nc4ccc(C(=O)O)cc4n3C[C@@H]3CCO3)cc2F)n1` [Example 239, (S)-2-(4-(6-((1-(cyanomethyl)-1H-pyrazol-5-yl)methoxy)pyridin-2-yl)-2,5-difluorobenzyl)-1-(oxetan-2-ylmethyl)-1H-benzo[d]imidazole-6-carboxylic acid] gave an EC50 of 447000 pM.
In turn, `COc1nnc(COc2cc(-c3cc(F)c(Cc4nc5c(F)cc(C(=O)O)cc5n4C[C@@H]4CCO4)cc3F)ccc2F)s1` [Example 389, (S)-4-fluoro-1-(oxetan-2-ylmethyl)-2-((2,4′,5-trifluoro-3′-((5-methoxy-1,3,4-thiadiazol-2-yl)methoxy)-[1,1′-biphenyl]-4-yl)methyl)-1H-benzo[d]imidazole-6-carboxylic acid] gave an EC50 of 257 pM.
With `Cn1cncc1COc1cccc(-c2cc(F)c(Cc3nc4ccc(C(=O)O)cc4n3C[C@@H]3CCO3)cc2F)n1` [Example 178, (S)-2-(2,5-difluoro-4-(6-((1-methyl-1H-imidazol-5-yl)methoxy)pyridin-2-yl)benzyl)-1-(oxetan-2-ylmethyl)-1H-benzo[d]imidazole-6-carboxylic acid], the EC50 turned out to be 23600 pM.
The figure for `COCCn1c(Cc2cc(F)c(-c3cccc(OCc4ccc(C#CC5CNC5)cc4F)n3)cc2F)nc2ccc(C(=O)O)cc21` [Example 232, 2-(4-(6-((4-(azetidin-3-ylethynyl)-2-fluorobenzyl)oxy)pyridin-2-yl)-2,5-difluorobenzyl)-1-(2-methoxyethyl)-1H-benzo[d]imidazole-6-carboxylic acid] is 5650 pM; for `Cn1cc(C#Cc2cnc(COc3cccc(-c4cc(F)c(Cc5nc6c(F)cc(C(=O)O)cc6n5CC5(CF)CC5)cc4F)n3)c(F)c2)cn1` [Example 274, 2-(2,5-difluoro-4-(6-((3-fluoro-5-((1-methyl-1H-pyrazol-4-yl)ethynyl)pyridin-2-yl)methoxy)pyridin-2-yl)benzyl)-4-fluoro-1-((1-(fluoromethyl)cyclopropyl)methyl)-1H-benzo[d]imidazole-6-carboxylic acid] it is 196 pM.
As to `CC(C)(C#N)NC(=O)c1cc(Cl)c(COc2cccc(-c3cc(F)c(Cc4nc5ccc(C(=O)O)cc5n4C[C@@H]4CCO4)cc3F)n2)cn1` [Example 199, (S)-2-(4-(6-((4-chloro-6-((2-cyanopropan-2-yl)carbamoyl)pyridin-3-yl)methoxy)pyridin-2-yl)-2,5-difluorobenzyl)-1-(oxetan-2-ylmethyl)-1H-benzo[d]imidazole-6-carboxylic acid], the EC50 was determined as 530 pM.
With `COc1nnc(COc2nc(-c3cc(F)c(Cc4nc5ccc(C(=O)O)cc5n4CC4(CF)CC4)cc3F)ccc2F)s1` [Example 268, 2-(2,5-difluoro-4-(5-fluoro-6-((5-methoxy-1,3,4-thiadiazol-2-yl)methoxy)pyridin-2-yl)benzyl)-1-((1-(fluoromethyl)cyclopropyl)methyl)-1H-benzo[d]imidazole-6-carboxylic acid], the EC50 was 762 pM.
Then `O=C(O)c1ccc2nc(Cc3cc(F)c(-c4cccc(OCc5ncc(-c6cnn(C(F)F)c6)s5)n4)cc3F)n(C[C@@H]3CCO3)c2c1` [Example 84, (S)-2-(4-(6-((5-(1-(difluoromethyl)-1H-pyrazol-4-yl)thiazol-2-yl)methoxy)pyridin-2-yl)-2,5-difluorobenzyl)-1-(oxetan-2-ylmethyl)-1H-benzo[d]imidazole-6-carboxylic acid], with 70 pM.
